25 molecules from patent US9580390B2, “Indazole compounds as kinase inhibitors and method of treating cancer with same” (University Health Network, priority 2011, dated 2017) can be followed below.

One experiment concerns the target T1, human TTK (Homo sapiens, UniProt P33981).
T1 construct: amino terminal GST fusion of full length human TTK; purchased Invitrogen
T1 sequence (P33981 1-857): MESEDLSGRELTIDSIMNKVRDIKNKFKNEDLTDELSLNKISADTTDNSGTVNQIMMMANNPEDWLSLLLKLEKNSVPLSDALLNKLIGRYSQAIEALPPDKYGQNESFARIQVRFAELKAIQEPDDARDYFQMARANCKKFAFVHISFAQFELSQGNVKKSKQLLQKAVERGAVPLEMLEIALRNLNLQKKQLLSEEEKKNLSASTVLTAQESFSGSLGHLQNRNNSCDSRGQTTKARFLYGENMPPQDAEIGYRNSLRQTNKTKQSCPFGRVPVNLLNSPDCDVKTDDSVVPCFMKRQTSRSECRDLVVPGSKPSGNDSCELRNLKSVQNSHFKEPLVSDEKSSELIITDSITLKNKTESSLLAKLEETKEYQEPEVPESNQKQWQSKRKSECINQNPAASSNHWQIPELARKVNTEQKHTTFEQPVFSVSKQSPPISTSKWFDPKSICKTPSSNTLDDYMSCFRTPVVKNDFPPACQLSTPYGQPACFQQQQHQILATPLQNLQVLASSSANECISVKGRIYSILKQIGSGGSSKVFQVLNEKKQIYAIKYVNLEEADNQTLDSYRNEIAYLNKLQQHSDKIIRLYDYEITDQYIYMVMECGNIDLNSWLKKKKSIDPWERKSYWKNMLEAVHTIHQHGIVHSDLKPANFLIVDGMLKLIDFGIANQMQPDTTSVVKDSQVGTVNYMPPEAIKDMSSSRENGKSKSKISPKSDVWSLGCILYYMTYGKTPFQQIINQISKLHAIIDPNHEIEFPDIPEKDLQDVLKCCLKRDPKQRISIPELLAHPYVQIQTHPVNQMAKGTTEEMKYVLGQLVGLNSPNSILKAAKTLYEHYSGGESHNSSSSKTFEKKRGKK
The experiment in a line: TTK inhibition assay (indirect ELISA). The class given is biochemical. Conditions: read-out: TTK IC50 Range. (In general: ELISA stands for enzyme-linked immunosorbent assay.)

Experiment [1] deals with colon cancer cells (HCT116). The experiment in a line: Cancer cell line growth inhibition (SRB assay). Type of experiment: cell-based. Conditions: Homo sapiens, HCT-116; HCT116 colon cancer cells, SRB assay; read-out: Cancer Cell Line GI50 Range HCT116.
For experiment [2], the system named is ovarian cancer cells (PA-1). Description: Cancer cell line growth inhibition (SRB assay). Type of experiment: cell-based. Conditions: PA-1 ovarian cancer cells, SRB assay; read-out: Cancer Cell Line GI50 Range PA-1.

As to `C[C@@H]1C[C@H](Oc2ccc(-c3n[nH]c4ccc(C(=O)NCC5(N6CCOCC6)CCCC5)cc34)cc2)C[C@H](C)O1` [Example A430, (4-(((2R,4R,6S)-2,6-dimethyltetrahydro-2H-pyran-4-yl)oxy)phenyl)-N-((1-morpholinocyclopentyl)methyl)-1H-indazole-5-carboxamide], the IC50 (in general, the midpoint of a concentration-inhibition curve) on human TTK was 100 to 500 nM. In the case of `CC(C)(C)C[C@H](NC(=O)c1ccc2[nH]nc(-c3ccc(N4CC(N5CCOCC5)C4)cc3)c2c1)c1ccccc1` [Example A520, (S)-N-(3,3-dimethyl-1-phenylbutyl)-3-(4-(3-morpholinoazetidin-1-yl)phenyl)-1H-indazole-5-carboxamide], the IC50 at human TTK was below 100 nM. With `O=C(NCC1(N2CCOCC2)CCCOC1)c1ccc2[nH]nc(-c3ccc(N4[C@@H]5CC[C@H]4C[C@H](O)C5)cc3)c2c1` (stereo partly drawn) [Example A516, 3-(4-((1R,3S,5S)-3-hydroxy-8-azabicyclo[3.2.1]octan-8-yl)phenyl)-N-((3-morpholinotetrahydro-2H-pyran-3-yl)methyl)-1H-indazole-5-carboxamide], the IC50 on human TTK was below 100 nM. `CN1CCC(Oc2ccc(-c3n[nH]c4ccc(NC(=O)Nc5ccccc5F)cc34)cc2)CC1` [Example A56, 1-(2-fluorophenyl)-3-(3-(4-((1-methylpiperidin-4-yl)oxy)phenyl)-1H-indazol-5-yl)urea]: the IC50 on human TTK lay within 100 to 500 nM. In addition, the GI50 (in general, the concentration at which growth is held to half of that of the control) in experiment [1] was above 500 nM. Regarding `O=C(NCC1(N2CCC(F)CC2)CCCCC1)c1ccc2[nH]nc(-c3ccc(N4CCOCC4)cc3)c2c1` [Example A456, N-((1-(4-fluoropiperidin-1-yl)cyclohexyl)methyl)-3-(4-morpholinophenyl)-1H-indazole-5-carboxamide], on human TTK, the IC50 is 100 to 500 nM. On to `CC(C)C[C@H](NC(=O)c1ccc2[nH]nc(-c3ccc(N4[C@@H]5CC[C@H]4COC5)cc3)c2c1)c1ccccc1F` [Example A519, 3-(4-((1R,5S)-3-oxa-8-azabicyclo[3.2.1]octan-8-yl)phenyl)-N-((S)-1-(2-fluorophenyl)-3-methylbutyl)-1H-indazole-5-carboxamide], for which, on human TTK, the IC50 is below 100 nM. For `C[C@@H]1CC(CNC(=O)c2ccc3[nH]nc(-c4ccc(OC5CCN(C)CC5)cc4)c3c2)(N2CCOCC2)C[C@H](C)O1` (stereo partly drawn) [Example A475, N-(((2R,6S)-2,6-dimethyl-4-morpholinotetrahydro-2H-pyran-4-yl)methyl)-3-(4-((1-methylpiperidin-4-yl)oxy)phenyl)-1H-indazole-5-carboxamide], the IC50 at human TTK lay within 100 to 500 nM. The same measure, in the same setting: then `O=C(NCC1(N2CCOCC2)CCCC1)c1ccc2[nH]nc(-c3ccc(OC4CCOCC4)cc3)c2c1` [Example A477, N-((1-morpholinocyclopentyl)methyl)-3-(4-((tetrahydro-2H-pyran-4-yl)oxy)phenyl)-1H-indazole-5-carboxamide], with 100 to 500 nM; and `CC(C)[C@H](NC(=O)c1ccc2[nH]nc(-c3ccc(N4CC(N5CCOCC5)C4)cc3)c2c1)c1ncccc1F` [Example A522, (S)-N-(1-(3-fluoropyridin-2-yl)-2-methylpropyl)-3-(4-(3-morpholinoazetidin-1-yl)phenyl)-1H-indazole-5-carboxamide], with below 100 nM. Take `CC(C)C[C@H](NC(=O)c1ccc2[nH]nc(-c3ccc(N4C5CCC4CC(O)C5)cc3)c2c1)c1ccccc1F` (stereo partly drawn) [Example A518, N-((S)-1-(2-fluorophenyl)-3-methylbulyl)-3-(4-((1R,3S,5S)-3-hydroxy-8-azabicyclo[3.2.1]octan-8-yl)phenyl)-1H-indazole-5-carboxamide]: at human TTK, the IC50 is below 100 nM. Turning to `CN1CCC(Oc2ccc(-c3n[nH]c4ccc(C(=O)NCC5(N6CCOCC6)CCC5)cc34)cc2)CC1` [Example A479, 3-(4-((1-methylpiperidin-4-yl)oxy)phenyl)-N-((1-morpholinocyclobutyl)methyl)-1H-indazole-5-carboxamide], the IC50 on human TTK was in the range of 100 to 500 nM. `CC(C)C[C@H](NC(=O)c1ccc2[nH]nc(-c3ccc(N4CC(N5CCOCC5)C4)cc3)c2c1)c1ccccc1` [Example A521, (S)-N-(3-methyl-1-phenylbutyl)-3-(4-(3-morpholinoazetidin-1-yl)phenyl)-1H-indazole-5-carboxamide]: at human TTK, the IC50 was below 100 nM.

As for `O=C(NCC1(N2CCOCC2)CCCOC1)c1ccc2[nH]nc(-c3ccc(N4CCOCC4)cc3)c2c1` (stereo not drawn) [Example A515, 3-(4-morpholinophenyl)-N-((3-morpholinotetrahydro-2H-pyran-3-yl)methyl)-1H-indazole-5-carboxamide], the IC50 on human TTK was below 100 nM. As for `CCN(C(=O)Nc1ccc2[nH]nc(-c3ccc(N4CCOCC4)cc3)c2c1)c1ccccc1` [Example A72, 1-ethyl-3-(3-(4-morpholinophenyl)-1H-indazol-5-yl)-1-phenylurea], the half-inhibitory concentration (IC50) on human TTK was above 500 nM. On the same count and under the same terms, to `CN1CCC(Oc2ccc(-c3n[nH]c4ccc(C(=O)NCC5(CN6CCOCC6)CC5)cc34)cc2)CC1` [Example A498, 3-(4-((1-methylpiperidin-4-yl)oxy)phenyl)-N-((1-(morpholinomethyl)cyclopropyl)methyl)-1H-indazole-5-carboxamide] belongs 100 to 500 nM; to `O=C(NCC1(N2CCOCC2)CCCOC1)c1ccc2[nH]nc(-c3ccc(N4[C@@H]5CC[C@H]4COC5)cc3)c2c1` (stereo partly drawn) [Example A517, 3-(4-((1R,5S)-3-oxa-8-azabicyclo[3.2.1]octan-8-yl)phenyl)-N-((3-morpholinotetrahydro-2H-pyran-3-yl)methyl)-1H-indazole-5-carboxamide], below 100 nM. As for `CC[C@@H](NC(=O)c1ccc2[nH]nc(-c3ccc(OC4CCN(C5COC5)CC4)cc3)c2c1)c1ccccc1Cl` [Example A192, (R)-N-(1-(2-chlorophenyl)propyl)-3-(4-((1-(oxetan-3-yl)piperidin-4-yl)oxy)phenyl)-1H-indazole-5-carboxamide], the 50% growth inhibitory concentration (GI50) in experiment [1] and in experiment [2] was 100 to 500 nM throughout. `O=C(NCC1(N2CCC(F)(F)CC2)CCCCC1)c1ccc2[nH]nc(-c3ccc(N4CCOCC4)cc3)c2c1` [Example A457, N-((1-(4,4-difluoropiperidin-1-yl)cyclohexyl)methyl)-3-(4-morpholinophenyl)-1H-indazole-5-carboxamide]: the concentration for half-maximal inhibition (IC50) on human TTK lay within 100 to 500 nM.

With `Cc1ccccc1C(NC(=O)c1ccc2[nH]nc(-c3ccc(N4CC(O)C4)cc3)c2c1)C1CC1` (stereo not drawn) [Example A141, N-(cyclopropyl(o-tolyl)methyl)-3-(4-(3-hydroxyazetidin-1-yl)phenyl)-1H-indazole-5-carboxamide], the 50% growth inhibitory concentration (GI50) in experiment [1] and in experiment [2] was 100 to 500 nM in each case.

For `CN1CCOC(c2ccc(-c3n[nH]c4ccc(C(=O)NC(c5ccccc5)C5CC5)cc34)cc2)C1` (stereo not drawn) [Example A139, N-(cyclopropyl(phenyl)methyl)-3-(4-(4-methylmorpholin-2-yl)phenyl)-1H-indazole-5-carboxamide], the concentration for 50% growth inhibition (GI50) in experiment [1] and in experiment [2] was 100 to 500 nM throughout.

Consider `CC(C)(O)C1CCN(c2ccc(-c3n[nH]c4ccc(C(=O)NC(c5ccccc5)C5CC5)cc34)cc2)CC1` (stereo not drawn) [Example A112, N-(cyclopropyl(phenyl)methyl)-3-(4-(4-(2-hydroxypropan-2-yl)piperidin-1-yl)phenyl)-1H-indazole-5-carboxamide], for which the concentration for 50% growth inhibition (GI50) in experiment [1] and in experiment [2] was 100 to 500 nM in each case.

In the case of `CN1CCN(c2ccc(-c3n[nH]c4ccc(NC(=O)C(c5ccsc5)N5CCCC5)cc34)cc2)C(=O)C1` (stereo not drawn) [Example A94, N-(3-(4-(4-Methyl-2-oxopiperazin-1-yl)phenyl)-1H-indazol-5-yl)-2-(pyrrolidin-1-yl)-2-(thiophen-3-yl)acetamide], the IC50 on human TTK is above 500 nM. For `O=CN1CCC(Oc2ccc(-c3n[nH]c4ccc(C(=O)NC(c5ccccc5)C5CC5)cc34)cc2)CC1` (stereo not drawn) [Example A126, N-(cyclopropyl(phenyl)methyl)-3-(4-((1-formylpiperidin-4-yl)oxy)phenyl)-1H-indazole-5-carboxamide], the GI50 in experiment [1] and in experiment [2] was 100 to 500 nM throughout.

`CN1CCN(C)c2ccc(-c3n[nH]c4ccc(NC(=O)C(c5ccsc5)N5CCCC5)cc34)cc2C1` (stereo not drawn) [Example A93, N-(3-(1,4-dimethyl-2,3,4,5-tetrahydro-1H-benzo[e][1,4]diazepin-7-yl)-1H-indazol-5-yl)-2-(pyrrolidin-1-yl)-2-(thiophen-3-yl)acetamide]: the GI50 in experiment [1] and in experiment [2] was above 500 nM each time.

As to `COc1cc(-c2n[nH]c3ccc(C(=O)NC(c4ccccc4)C4CC4)cc23)ccc1OC1CCN(C=O)CC1` (stereo not drawn) [Example A205, N-(cyclopropyl(phenyl)methyl)-3-(4-((1-formylpiperidin-4-yl)oxy)-3-methoxyphenyl)-1H-indazole-5-carboxamide], the GI50 in experiment [1] and in experiment [2] was 100 to 500 nM throughout.
